These results are taken from patent US20010021710A1, “NOVEL CIS-3,4-CHROMAN DERIVATIVES USEFUL IN THE PREVENTION OR TREATMENT OF ESTROGEN RELATED DISEASES OR SYNDROMES” (priority 1996, published 2001).

Each structure is given as a SMILES string.

In turn, `Oc1ccc2c(c1)OC[C@@H](c1ccc(F)cc1)[C@H]2c1ccc(OCCN2CCCC2)cc1` (racemic) [Example 7, (±)-cis-7-Hydroxy-3-(4-fluorophenyl)-4-(4-(2-pyrrolidinoethoxy)phenyl)chromane] yielded a melting point of 164 to 167 °C.

`Oc1ccc2c(c1)OC[C@@H](c1ccc(F)cc1)[C@H]2c1ccc(OCCN2CCCCC2)cc1` (racemic) [Example 8, (±)-cis-7-Hydroxy-3-(4-fluorophenyl)-4-(4-(2-piperidinoethoxy)phenyl)-chromane]: the melting point was in the range of 146 to 147 °C.

Regarding `Oc1ccc2c(c1)OC[C@@H](c1ccc(F)cc1)[C@H]2c1ccc(OCCCN2CCCCC2)cc1` (racemic) [Example 9, (±)-cis-7-Hydroxy-3-(4-fluorophenyl)-4-(4-(3-piperidinopropoxy)phenyl)chromane], the melting point was in the range of 78 to 84 °C.

`Oc1ccc([C@@H]2COc3cc(O)ccc3[C@@H]2c2ccc(OCCN3CCCC3)cc2)cc1` (racemic) [Example 10, (±)-cis-7-Hydroxy-3-(4-hydroxyphenyl)-4-(4-(2-pyrrolidinoethoxy)phenyl)chromane] yielded a melting point of 112 to 116 °C.

`Cc1ccc([C@@H]2COc3cc(O)ccc3[C@@H]2c2ccc(OCCN3CCCC3)cc2)cc1` (racemic) [Example 12, (±)-cis-7-Hydroxy-3-(4-methylphenyl)-4-(4-(2-pyrrolidinoethoxy)phenyl)chromane] registered a melting point of 161 to 165 °C.

The molecule `Cc1ccc([C@@H]2COc3cc(O)ccc3[C@@H]2c2ccc(OCCN3CCCCC3)cc2)cc1` (racemic) [Example 13, (±)-cis-7-Hydroxy-3-(4-methylphenyl)-4-(4-(2-piperidinoethoxy)phenyl)chromane] came in with a melting point of 146 to 147.5 °C.

Molecule `Cc1cccc([C@@H]2COc3cc(O)ccc3[C@@H]2c2ccc(OCCN3CCCC3)cc2)c1` (racemic) [Example 16, (±)-cis-7-Hydroxy-3-(3-methylphenyl)-4-(4-(2-pyrrolidinoethoxy)phenyl)chromane] showed a melting point of 85 to 90 °C.

On to `Oc1ccc2c(c1)OC[C@@H](c1cccc(F)c1)[C@H]2c1ccc(OCCN2CCCC2)cc1` (racemic) [Example 17, (±)-cis-3-(3-Fluorophenyl)-7-hydroxy-4-(4-(2-pyrrolidinoethoxy)phenyl)chromane], for which the melting point was in the range of 146 to 150 °C.

For the molecule `Oc1cccc([C@@H]2COc3cc(O)ccc3[C@@H]2c2ccc(OCCN3CCCCC3)cc2)c1` (racemic) [Example 19, (±)-cis-7-Hydroxy-3-(3-hydroxyphenyl)-4-(4-(2-piperidinoethoxy)phenyl)chromane], the melting point is 144 °C (dec.).

`Oc1ccc2c(c1)OC[C@@H](c1cccc(C(F)(F)F)c1)[C@H]2c1ccc(OCCN2CCCC2)cc1` (racemic) [Example 21, (±)-cis-7-Hydroxy-4-(4-(2-pyrrolidinoethoxy)phenyl)-3-(3-(trifluoromethyl)phenyl)-chromane]: the melting point lay in the range of 87 to 89 °C.

As for `Oc1ccc2c(c1)OC[C@@H](c1cccc(C(F)(F)F)c1)[C@H]2c1ccc(OCCN2CCCCC2)cc1` (racemic) [Example 22, (±)-cis-7-Hydroxy-4-(4-(2-piperidinoethoxy)phenyl)-3-(3-(trifluoromethyl)phenyl)-chromane], the melting point was in the range of 118 to 119 °C.

Consider `Oc1ccc2c(c1)OC[C@@H](c1ccccc1F)[C@H]2c1ccc(OCCN2CCCC2)cc1` (racemic) [Example 23, (±)-cis-3-(2-Fluorophenyl)-7-hydroxy-4-(4-(2-pyrrolidinoethoxy)phenyl)chromane], for which the melting point was 190 °C (dec.).

For the molecule `Oc1ccc2c(c1)OC[C@@H](c1c(F)c(F)c(F)c(F)c1F)[C@H]2c1ccc(OCCN2CCCC2)cc1` (racemic) [Example 24, (±)-cis-7-Hydroxy-3-(2,3,4,5,6-pentafluorophenyl)-4-(4-(2-pyrrolidinoethoxy)phenyl)chromane], the melting point was 125 °C (dec.).

With `Oc1ccc2c(c1)OC[C@@H](c1c(F)c(F)c(F)c(F)c1F)[C@H]2c1ccc(OCCN2CCCCC2)cc1` (racemic) [Example 25, (±)-cis-7-Hydroxy-3-(2,3,4,5,6-pentafluorophenyl)-4-(4-(2-piperidinoethoxy)phenyl)chromane], the melting point was 174 °C (dec.).

Turning to `Oc1ccc2c(c1)OC[C@@H](c1ccc(C(F)(F)F)cc1)[C@H]2c1ccc(OCCN2CCCC2)cc1` [Example 1, (+)-cis-7-Hydroxy-4-(4-(2-pyrrolidinoethoxy)phenyl)-3-(4-(trifluoromethyl)phenyl)-chromane], the melting point was 100 °C (dec.).
